One experiment relates to uterus. The experiment can be described thus: Wet uterine weight in ovariectomized rats (post-menopausal model). It is filed as in vivo, female Sprague Dawley rats (ovariectomized). Conditions: Rattus norvegicus, 96 h, oral, daily for 4 days, OVX rats, read-out: Uterine Weight (% increase vs. OVX). As to the method: In the examples illustrating the methods, a post-menopausal model was used in which effects of different treatments upon circulating lipids were determined.
(§1) Seventy-five day old female Sprague Dawley rats (weight range of 200 to 225 g) were obtained from Charles River Laboratories (Portage, Mich.). The animals were either bilaterally ovariectomized (OVX) or exposed to a Sham surgical procedure at Charles River Laboratories, and then shipped after one week. Upon arrival, they were housed in metal hanging cages in groups of 3 or 4 per cage and had ad libitum access to food (calcium content approximately 0.5%) and water for one week. Room temperature was maintained at 22.2°±1.7° C. with a minimum relative humidity of 40%. The photoperiod in the room was 12 hours light and 12 hours dark.
(§2) Dosing Regimen Tissue Collection. After a one week acclimation period (therefore, two weeks post-OVX) daily dosing with test compound was initiated. 17a-ethynyl estradiol or the test compound were given orally, unless otherwise stated, as a suspension in 1% carboxymethylcellulose or dissolved in 20% cyclodextrin. Animals were dosed daily for 4 days. Following the dosing regimen, animals were weighed and anesthetized with a ketamine: Xylazine (2:1, V:V) mixture and a blood sample was collected by cardiac puncture. The animals were then sacrificed by asphyxiation with CO2, the uterus was removed through a midline incision, and a wet uterine weight was determined.
(§3) The data presented in the Tables 1 below reflects the response of 5 to 6 rats per treatment.

The test system of experiment [1] is Uterine Eosinophil Peroxidase (EPO). The experiment can be described thus: Uterine Eosinophil Peroxidase (EPO) Assay. It is filed as in vivo, female Sprague Dawley rats (ovariectomized). Set-up: Uterine EPO (V. max): unit not given here. The conditions noted are these: oral, daily for 4 days, OVX rats, 450 nm.
From the text: as §1, §2
Uterine Eosinophil Peroxidase (EPO) Assay. Uteri were kept at 4° C. until time of enzymatic analysis. The uteri were then homogenized in 50 volumes of 50 mM Tris buffer (pH-8.0) containing 0.005% Triton X-100. Upon addition of 0.01% hydrogen peroxide and 10 mM O-phenylenediamine (final concentrations) in Tris buffer, increase in absorbance was monitored for one minute at 450 nm. The presence of eosonophils in the uterus is an indication of estrogenic activity of a compound. The maximal velocity of a 15 second interval was determined over the initial, linear portion of the reaction curve.
As is expressed in the below data, estrogenicity also was assessed by evaluating the adverse response of eosinophil infiltration into the uterus.
as §3

A further experiment has as its system Serum Cholesterol. The experiment can be described thus: Serum cholesterol analysis in ovariectomized rats. It is filed as in vivo, female Sprague Dawley rats (ovariectomized). The conditions noted are these: Rattus norvegicus, 96 h, oral, daily for 4 days, OVX rats, read-out: Serum Cholesterol (% decrease vs. OVX).
From the text: as §1, §2
Cholesterol Analysis. Blood samples were allowed to clot at room temperature for 2 hours, and serum was obtained following centrifugation for 10 minutes at 3000 rpm. Serum cholesterol was determined using a Boehringer Mannheim Diagnostics high performance cholesterol assay. Briefly the cholesterol was oxidized to cholest-4-en-3-one and hydrogen peroxide. The hydrogen peroxide was then reacted with phenol and 4-aminophenazone in the presence of peroxidase to produce a p-quinone imine dye, which was read spectrophotemetrically at 500 nm. Cholesterol concentration was then calculated against a standard curve. The entire assay was automated using a Biomek Automated Workstation.
as §3

Another experiment concerns Distal Femur Metaphysis. The experiment can be described thus: Osteoporosis test, distal femur metaphysis X-ray image analysis. It is filed as in vivo, female Sprague Dawley rats (ovariectomized). The conditions noted are these: oral, daily for 35 days, in 20% hydroxypropyl b-cyclodextrin. An excerpt:
Seventy-five day old female Sprague Dawley rats (weight range of 200 to 225 g) were obtained from Charles River Laboratories (Portage, Mich.). The animals were either bilaterally ovariectomized (OVX) or exposed to a Sham surgical procedure at Charles River Laboratories, and then shipped after one week. Upon arrival, they were housed in metal hanging cages in groups of 3 or 4 per cage and had ad libitum access to food (calcium content approximately 0.5%) and water for one week. Room temperature was maintained at 22.2°±1.7° C. with a minimum relative humidity of 40%. The photoperiod in the room was 12 hours light and 12 hours dark. Following the General Preparation Procedure, infra, the rats were treated daily for 35 days (6 rats per treatment group) and sacrificed by carbon dioxide asphyxiation on the 36th day. The 35 day time period was sufficient to allow maximal reduction in bone density, measured as described herein. At the time of sacrifice, the uteri were removed, dissected free of extraneous tissue, and the fluid contents were expelled before determination of wet weight in order to confirm estrogen deficiency associated with complete ovariectomy. […] The uteri were then placed in 10% neutral buffered formalin to allow for subsequent histological analysis. The right femurs were excised and digitilized x-rays generated and analyzed by an image analysis program (NIH image) at the distal metaphysis. The proximal aspect of the tibiae from these animals were also scanned by quantitative computed tomography. In accordance with the above procedures, compounds of the present invention and ethynyl estradiol (EE2) in 20% hydroxypropyl b-cyclodextrin were orally administered to test animals. Distal femur metaphysis data presented in Tables 2 and 3 below are the results of formula I compound treatments compared to intact and ovariectomized test animals. Results are reported as percent protection relative to ovariectomy.

Experiment [2] has as its system MCF-7 breast adenocarcinoma cells. The experiment can be described thus: MCF-7 Proliferation Assay (tritiated thymidine). In kind it is cell-based. The conditions noted are these: Homo sapiens, MCF7; MCF-7 cells, 48 hours, tritiated thymidine pulse 4 hours. As to the method: MCF-7 breast adenocarcinoma cells (ATCC HTB 22) were maintained in MEM (minimal essential medium, phenol red-free, Sigma, St. Louis, Mo.) supplimented with 10% fetal bovine serum […] (V/V), L-glutamine (2 mM), sodium pyruvate (1 mM), HEPES {(N-[2-hydroxyethyl]piperazine-N'-[2-ethanesulfonic acid]10 mM)}, non-essential amino acids and bovine insulin (1 ug/mL) (maintenance medium). Ten days prior to assay, MCF-7 cells were switched to maintenance medium supplemented with 10% dextran coated charcoal stripped fetal bovine serum (DCC-FBS) assay medium) in place of 10% FBS to deplete internal stores of steroids. MCF-7 cells were removed from maintenance flasks using cell dissociation medium (Ca++/Mg++ free HBSS (phenol red-free) supplemented with 10 mM HEPES and 2 mM EDTA). Cells were washed twice with assay medium and adjusted to 80,000 cells/mL. Approximately […] (8,000 cells) were added to flat-bottom microculture wells (Costar 3596) and incubated at 37° C. in a 5% CO2 humidified incubator for 48 hours to allow for cell adherence and equilibration after transfer. Serial dilutions of drugs or DMSO as a diluent control were prepared in assay medium and […] to triplicate microcultures followed by […] assay medium for a final volume of […]. After an additional 48 hours at 37° C. in a 5% CO2 humidified incubator, microcultures were pulsed with tritiated thymidine (1 uCi/well) for 4 hours. Cultures were terminated by freezing at -70° C. for 24 hours followed by thawing and harvesting of microcultures using a Skatron Semiautomatic Cell Harvester. Samples were counted by liquid scintillation using a Wallac BetaPlace b counter. Results in Table 3 below show the IC50 for certain compounds of the present invention.

In general, IC50 refers to the midpoint of a concentration-inhibition curve. On to `Oc1ccc2c(c1)OC(c1ccc(OCCN3CCCCC3)cc1)c1c-2sc2cc(O)ccc12` (centres unmarked) [Example 1, 3,9-Dihydroxy-6-[4-[2-(1-piperidinyl)ethoxy]phenyl]-6-H-[1]benzothieno[3,2-c][1]benzopyran], for which the change in vivo at 0.1 mg/kg in the experiment on uterus (0.1 mg/kg) is 25.3%. In the experiment on uterus (1.0 mg/kg), the change in vivo at 1 mg/kg turned out to be 9.2%. Moreover, in the experiment with uterus (10.0 mg/kg), the change in vivo at 10 mg/kg turned out to be 5.9%. Moreover, the “Uterine EPO (V. max)” value in experiment [1] (0.1 mg/kg) is listed as 7.8; in experiment [1] (1.0 mg/kg), 3.0; in experiment [1] (10.0 mg/kg), 2.1. Moreover, in the experiment on Serum Cholesterol (0.1 mg/kg), the inhibition in vivo at 0.1 mg/kg came to 72.8%. Also, the inhibition in vivo at 1 mg/kg in the experiment with Serum Cholesterol (1.0 mg/kg) is 51%. The inhibition in vivo at 10 mg/kg in the experiment on Serum Cholesterol (10.0 mg/kg) was 54.6%. The “Distal Femur Metaphysis (X-ray Image Analysis-Gray Score), percent protection relative to ovariectomy” value in the experiment on Distal Femur Metaphysis (0.01 mg/kg) is listed as 14.2%; with Distal Femur Metaphysis (0.1 mg/kg), 49.8%; in the experiment with Distal Femur Metaphysis (1.0 mg/kg), 51.7%; in the experiment with Distal Femur Metaphysis (10.0 mg/kg), 48.2%. This compound displayed an IC50 in experiment [2] of 0.2 nM.
